{
  "source": "patent US20230053688A1",
  "about": "“METHODS TO ALTER LATENCY IN EBV+ MALIGNANCIES” (Cornell University, priority 2020, published 2023)",
  "test_system": "LMP1 expression in Kem I cells",
  "assay": "microbe, parasite or virus in culture",
  "format": "cell-based, EBV",
  "details": "for fold induction at 2.5 µM: human gammaherpesvirus 4, 48 h",
  "key": {"[1]": {"details": "read-out: Average LMP1 Fold Increase, Kem I cells, 2.5 uM, 48 hours, average of replicates 1 and 2"}, "[2]": {"details": "read-out: Replicate 1-LMP1 Fold Increase, Kem I cells, 2.5 uM, 48 hours, fold change in LMP1 transcript vs vehicle"}, "[3]": {"details": "read-out: Replicate 2-LMP1 Fold Increase, Kem I cells, 2.5 uM, 48 hours, fold change in LMP1 transcript vs vehicle"}, "[4]": {"details": "Kem I cells, 2.5 uM, 48 hours, average of replicates 1 and 2"}, "[5]": {"details": "Kem I cells, 2.5 uM, 48 hours, fold change in LMP1 transcript vs vehicle"}},
  "note": "Counter-ions that a name gives are not always drawn. Like-named read-outs stand apart in the source and are kept apart here.",
  "data": [
    {"smiles": "CC[C@H](C)C(=O)O[C@H]1C[C@@H](C)C=C2C=C[C@H](C)[C@H](CC[C@@H]3C[C@@H](O)CC(=O)O3)[C@H]21", "note": "[Lovastatin]", "values": [
      {"measurement": "fold induction at 2.5 µM", "setting": "[1]", "result": 0.96},
      {"measurement": "fold induction at 2.5 µM", "setting": "[2]", "result": 0.34},
      {"measurement": "fold induction at 2.5 µM", "setting": "[3]", "result": 1.59}
    ]},
    {"smiles": "CC(C)CCNC(=O)[C@H](CC(C)C)NC(=O)[C@H]1O[C@@H]1C(=O)O", "note": "[Loxistatin Acid (E-64C)]", "values": [
      {"measurement": "Average LMP1 Fold Increase", "setting": "[4]", "result": 0.55},
      {"measurement": "Replicate 1-LMP1 Fold Increase", "setting": "[5]", "result": 0.62},
      {"measurement": "Replicate 2-LMP1 Fold Increase", "setting": "[5]", "result": 0.48}
    ]},
    {"smiles": "C=CCn1c(=O)c2cnc(Nc3ccc(N4CCN(C)CC4)cc3)nc2n1-c1cccc(C(C)(C)O)n1", "note": "[MK-1775]", "values": [
      {"measurement": "fold induction at 2.5 µM", "setting": "[1]", "result": 5.22},
      {"measurement": "fold induction at 2.5 µM", "setting": "[2]", "result": 6.01},
      {"measurement": "fold induction at 2.5 µM", "setting": "[3]", "result": 4.43}
    ]},
    {"smiles": "Cl.Cl.NC1(c2ccc(-c3nc4ccn5c(=O)[nH]nc5c4cc3-c3ccccc3)cc2)CCC1", "note": "[MK-2206 2HCl]", "values": [
      {"measurement": "Average LMP1 Fold Increase", "setting": "[4]", "result": 0.51},
      {"measurement": "Replicate 1-LMP1 Fold Increase", "setting": "[5]", "result": 0.44},
      {"measurement": "Replicate 2-LMP1 Fold Increase", "setting": "[5]", "result": 0.59}
    ]},
    {"smiles": "C[C@](O)(COc1ccc(C#N)cc1)C(=O)Nc1ccc(C#N)c(C(F)(F)F)c1", "note": "[MK-2866 (GTx-024)]", "values": [
      {"measurement": "Average LMP1 Fold Increase", "setting": "[4]", "result": 0.64},
      {"measurement": "Replicate 1-LMP1 Fold Increase", "setting": "[5]", "result": 0.72},
      {"measurement": "Replicate 2-LMP1 Fold Increase", "setting": "[5]", "result": 0.56}
    ]},
    {"smiles": "O=C(O)Cn1nnc(-c2cc(N3CCC(Oc4cc(F)ccc4Br)CC3)no2)n1", "note": "[MK-8245]", "values": [
      {"measurement": "fold induction at 2.5 µM", "setting": "[1]", "result": 1.17},
      {"measurement": "fold induction at 2.5 µM", "setting": "[2]", "result": 1.51},
      {"measurement": "fold induction at 2.5 µM", "setting": "[3]", "result": 0.84}
    ]},
    {"smiles": "COc1ccc(CNCc2cccc3ccccc23)cc1.Cl", "note": "[ML133 HCl]", "values": [
      {"measurement": "Average LMP1 Fold Increase", "setting": "[4]", "result": 0.54},
      {"measurement": "Replicate 1-LMP1 Fold Increase", "setting": "[5]", "result": 0.42},
      {"measurement": "Replicate 2-LMP1 Fold Increase", "setting": "[5]", "result": 0.67}
    ]},
    {"smiles": "CCCC(=O)Nc1cccc(NC(=O)c2ccccc2Br)c1", "note": "[ML161]", "values": [
      {"measurement": "Average LMP1 Fold Increase", "setting": "[4]", "result": 0.83},
      {"measurement": "Replicate 1-LMP1 Fold Increase", "setting": "[5]", "result": 1.11},
      {"measurement": "Replicate 2-LMP1 Fold Increase", "setting": "[5]", "result": 0.54}
    ]},
    {"smiles": "COc1ccc(-c2cnc3c(-c4cccc5ncccc45)cnn3c2)cc1", "note": "[ML347]", "values": [
      {"measurement": "Average LMP1 Fold Increase", "setting": "[4]", "result": 0.34},
      {"measurement": "Replicate 1-LMP1 Fold Increase", "setting": "[5]", "result": 0.19},
      {"measurement": "Replicate 2-LMP1 Fold Increase", "setting": "[5]", "result": 0.49}
    ]},
    {"smiles": "CC(C)C[C@H](NC(=O)CNC(=O)c1cc(Cl)ccc1Cl)B(O)O", "note": "[MLN2238]", "values": [
      {"measurement": "fold induction at 2.5 µM", "setting": "[1]", "result": 112},
      {"measurement": "fold induction at 2.5 µM", "setting": "[2]", "result": 86.8},
      {"measurement": "fold induction at 2.5 µM", "setting": "[3]", "result": 138}
    ]},
    {"smiles": "O=C(O)c1ccc(Nc2ncc3c(n2)-c2ccc(Cl)cc2C(c2c(F)cccc2F)=NC3)cc1", "note": "[MLN8054]", "values": [
      {"measurement": "fold induction at 2.5 µM", "setting": "[1]", "result": 0.37},
      {"measurement": "fold induction at 2.5 µM", "setting": "[2]", "result": 0.27},
      {"measurement": "fold induction at 2.5 µM", "setting": "[3]", "result": 0.47}
    ]},
    {"smiles": "CCC(CC)(NC(=O)C(C)C)C(=O)N[C@@H](CCCN=C(N)N)C(=O)NC1(C(=O)NC(c2ccc(F)cc2)c2ccc(F)cc2)CCCC1", "note": "[MM-102]", "values": [
      {"measurement": "Average LMP1 Fold Increase", "setting": "[4]", "result": 0.27},
      {"measurement": "Replicate 1-LMP1 Fold Increase", "setting": "[5]", "result": 0.27},
      {"measurement": "Replicate 2-LMP1 Fold Increase", "setting": "[5]", "result": 0.27}
    ]},
    {"smiles": "S=C=Nc1cccc(NC(=S)NCCCCNC(=S)Nc2cccc(N=C=S)c2)c1", "note": "[MRS 2578]", "values": [
      {"measurement": "Average LMP1 Fold Increase", "setting": "[4]", "result": 0.47},
      {"measurement": "Replicate 1-LMP1 Fold Increase", "setting": "[5]", "result": 0.64},
      {"measurement": "Replicate 2-LMP1 Fold Increase", "setting": "[5]", "result": 0.31}
    ]},
    {"smiles": "COc1cc(-n2c(=S)[nH]c3ccccc3c2=O)c(Cl)cc1Cl", "note": "[Mdivi-1]", "values": [
      {"measurement": "Average LMP1 Fold Increase", "setting": "[4]", "result": 0.64},
      {"measurement": "Replicate 1-LMP1 Fold Increase", "setting": "[5]", "result": 0.51},
      {"measurement": "Replicate 2-LMP1 Fold Increase", "setting": "[5]", "result": 0.77}
    ]},
    {"smiles": "CC12CC3CC(C)(C1)CC(N)(C3)C2", "note": "[Memantine HCl]", "values": [
      {"measurement": "fold induction at 2.5 µM", "setting": "[1]", "result": 0.42},
      {"measurement": "fold induction at 2.5 µM", "setting": "[2]", "result": 0.55},
      {"measurement": "fold induction at 2.5 µM", "setting": "[3]", "result": 0.3}
    ]},
    {"smiles": "Nc1nc(CC(=O)Nc2ccc(CCNC[C@H](O)c3ccccc3)cc2)cs1", "note": "[Mirabegron]", "values": [
      {"measurement": "fold induction at 2.5 µM", "setting": "[1]", "result": 0.75},
      {"measurement": "fold induction at 2.5 µM", "setting": "[2]", "result": 0.74},
      {"measurement": "fold induction at 2.5 µM", "setting": "[3]", "result": 0.76}
    ]},
    {"smiles": "O=C(NCCN1CCOCC1)c1ccc(Cl)cc1", "note": "[Moclobemide (Ro 111163)]", "values": [
      {"measurement": "Average LMP1 Fold Increase", "setting": "[4]", "result": 0.55},
      {"measurement": "Replicate 1-LMP1 Fold Increase", "setting": "[5]", "result": 0.28},
      {"measurement": "Replicate 2-LMP1 Fold Increase", "setting": "[5]", "result": 0.81}
    ]},
    {"smiles": "Cc1ccccc1C(=O)Nc1ccc(C(=O)N2CCCC(N(C)C)c3ccccc32)cc1", "note": "(stereo not drawn) [Mozavaptan]", "values": [
      {"measurement": "fold induction at 2.5 µM", "setting": "[1]", "result": 0.61},
      {"measurement": "fold induction at 2.5 µM", "setting": "[2]", "result": 0.32},
      {"measurement": "fold induction at 2.5 µM", "setting": "[3]", "result": 0.9}
    ]},
    {"smiles": "FC(F)(F)c1ccc(/C=C/c2nc(COc3ccc(CCCCn4ccnn4)cc3)co2)cc1", "note": "[Mubritinib (TAK 165)]", "values": [
      {"measurement": "Average LMP1 Fold Increase", "result": 0.68},
      {"measurement": "Replicate 1-LMP1 Fold Increase", "result": 0.74},
      {"measurement": "Replicate 2-LMP1 Fold Increase", "result": 0.62}
    ]},
    {"smiles": "CCCCCCCCCCCCCCCCn1cc[n+](Cc2ccccc2)c1C.[I-]", "note": "[NH125]", "values": [
      {"measurement": "Average LMP1 Fold Increase", "setting": "[4]", "result": 0.70},
      {"measurement": "Replicate 1-LMP1 Fold Increase", "setting": "[5]", "result": 0.94},
      {"measurement": "Replicate 2-LMP1 Fold Increase", "setting": "[5]", "result": 0.46}
    ]}
  ]
}
